Key:
[1] = test system: adjuvant arthritis (left paw edema); experiment: rat adjuvant arthritis (daily dosing) assay; assay type: in vivo, Sprague-Dawley rats; details: for % Change of Left Paw Edema at Day 16: daily regimen; for ED50: Rattus norvegicus, po, 384 h, read-out: estimated ED50
Procedure: The ability of the compounds of the invention to inhibit immunologic-induced (chronic) inflammation is tested in adjuvant arthritis (daily dosing) assay.
Polyarthritis is induced in groups of 6-10 Sprague-Dawley rats weighing between 180-220 g. by a subcutaneous injection into the right paw of dessicated Mycobacterium butyricum or tuberculosis (0.5 mg/0.1 ml) suspended in light mineral oil. Compounds of the invention, aspirin and indomethacin are administered orally in 0.5% methylcellulose using a daily regimen (except for weekends). Both hind paw volumes (ml.) are measured by mercury plethysmograph on day 0 or at the time of injection of the complete adjuvant. Increases in paw volume (viz. edema) are determined for the left paw on day 16. Statistical analysis of differences in paw edemas is performed by using the unpaired, Student's t-test.

carrageenan paw edema = experiment: rat carrageenan edema test (hind paw); assay type: in vivo, male Sprague-Dawley rats; details: for % Change From Control: paw edema 3 hours after carrageenan; for ED50: Rattus norvegicus, po, 3 h, read-out: dose exhibiting a 50% inhibition of edema
Procedure: Groups of 6-8 male Sprague-Dawley rats weighing between 150-200 grams are used. Compounds of the invention, aspirin and indomethacin are administered orally in 0.5% methylcellulose. Vehicle alone is administered as a control. Sixty minutes after drug administration edema is induced by injection of 0.1 ml. of a 1% carrageenan solution in saline into the subplantar tissue of the rat's right hind paw. Two minutes later, paw volume is measured volumetrically with a plethysmograph and again 3 hours later. The mean volume of swelling for the control group is calculated and compared to the test groups. Percent change in paw edema is calculated and analysed statistically (unpaired, Student's t-test).

[2] = anti-inflammatory activity, comparison of isomers (test not specified); assay type: in vivo; details: E-isomer versus Z-isomer

Compound: O=C(O)C=C1c2ccccc2C=C(Br)c2ccccc21 [Example 8, E- and Z-(10-bromo-5H-dibenzo[a,d]cyclohepten-5-ylidene) acetic acid]
- % Change of Left Paw Edema at Day 16 ([1]; oral dose 25-50 mg/kg): -25 to -50%
- % Change From Control (carrageenan paw edema; oral dose 200 mg/kg): -34%

Compound: O=C(O)/C=C1/c2ccccc2C=Cc2cc(Cl)ccc21 [Example 2G]
- % Change From Control (carrageenan paw edema; oral dose 200 mg/kg): ~-38%

Compound: C1=Cc2ccccc2C(=Cc2nnn[nH]2)c2ccccc21 [Example 7B, 5-(5H-Dibenzo[a,d]cyclohepten-5-ylidenemethyl) 1H-tetrazole]
- % Change From Control (carrageenan paw edema; oral dose 200 mg/kg): ~-38%

Compound: O=C(O)C=C1c2ccccc2C=Cc2ccc(F)cc21 [Example 9]
- % Change of Left Paw Edema at Day 16 ([1]; oral dose 100-200 mg/kg): -40%
- oral doses that inhibit carrageenan paw edema (carrageenan paw edema): 20 to 200 mg/kg
- % Change From Control (carrageenan paw edema; oral dose 200 mg/kg): -58%

Compound: O=C(O)/C=C1/c2ccccc2C=Cc2ccc(Cl)cc21 [Example 1G, Z-(3-Chloro-5H-dibenzo[a,d]cyclohepten-5-ylidene) acetic acid]
- % Change of Left Paw Edema at Day 16 ([1]; oral dose 25 mg/kg): -28%
- % Change From Control (carrageenan paw edema; oral dose 100-200 mg/kg): -20%

Compound: O=C(O)/C=C1\c2ccccc2C=Cc2ccc(Cl)cc21 [Example 1H]
- % Change of Left Paw Edema at Day 16 ([1]; oral dose 25 mg/kg): -59%
- oral doses that inhibit carrageenan paw edema (carrageenan paw edema): 20 to 200 mg/kg
- % Change From Control (carrageenan paw edema; oral dose 20 mg/kg): -33%
- % Change From Control (carrageenan paw edema; oral dose 60 mg/kg): -53%
- % Change From Control (carrageenan paw edema; oral dose 180 mg/kg): -68%
- anti-inflammatory activity relative to its Z-isomer [2]: several times more active

Compound: COc1ccc2c(c1)c(CC(=O)O)c(C)n2C(=O)c1ccc(Cl)cc1 [Indomethacin, reference compound]
- ED50 [1]: 0.9 mg/kg
- ED50 (carrageenan paw edema): ~5.6 mg/kg

Compound: O=C(O)/C=C1\c2ccccc2C=Cc2cc(Cl)ccc21 [Example 2H]
- % Change of Left Paw Edema at Day 16 ([1]; oral dose 25 mg/kg): -59%
- % Change From Control (carrageenan paw edema; oral dose 200 mg/kg): -49%

Compound: O=C(O)C(Cl)=C1c2ccccc2C=Cc2ccccc21 [Example 6E]
- % Change From Control (carrageenan paw edema; oral dose 200 mg/kg): -31%

Compound: COc1ccc2c(c1)C(=CC(=O)O)c1ccccc1C=C2 [Example 4F, (3-Methoxy-5H-dibenzo[a,d]cyclohepten-5-ylidene)acetic acid]
- % Change of Left Paw Edema at Day 16 ([1]; oral dose 15 mg/kg): -50%
- % Change From Control (carrageenan paw edema; oral dose >200 mg/kg): -50%

Compound: CC(=O)Oc1ccccc1C(=O)O [aspirin, reference compound]
- ED50 [1]: ~140 mg/kg
- ED50 (carrageenan paw edema): ~250 mg/kg
